7 molecules from patent publication US5225543A, “Receptors method for purification of G protein-linked” (priority 1991, dated 1993) can be followed below.

The IC50 is the concentration needed to halve the response being measured.

Data set [1] has as its target T1, SRIF receptor (GH4 C1 membranes) (Rattus norvegicus, UniProt P30680).
T1 construct: GH4 C1 rat pituitary tumor cells; endogenous in cells; host or cells: GH4 C1 rat pituitary tumor cells (isolated membranes)
Nature of the data set: Competitive radioligand binding vs [^125 I]Tyr11-S14 on GH4 C1 membranes (FIG. 4). The conditions noted are these: for IC50: vs [^125 I]Tyr11-S14, 20 ug GH4 C1 membrane protein, 100,000 cpm (FIG. 4B).
Procedure: Membrane Isolation--1-8 liter batches of cells at densities of 6-10×10^5 cells/ml are pelleted in conical bottom glass centrifuge bottles (600 or 800 ml; Bellco) at 1,000× g for 5 min. The supernatants are carefully poured off and the cells are resuspended in ice cold homogenization medium (1 mM Na-bicarbonate at pH 7.6, 1 mM EDTA and 1 mM EGTA) containing 0.7% (vol/vol) of the "100×4pase" protease inhibitor cocktail (see below). Twenty ml of homogenization medium is used for every liter of suspension culture. After 5 min. on ice, the hypotonically swollen cells are homogenized with 10 strokes of a tight fitting Dounce homogenizer (Kontes, type A pestle). The homogenate is centrifuged at 1,000× g for 10 min. and the supernatant is removed and kept on ice. The 1,000× g pellet containing residual intact cells, nuclei and DNA is washed by gently homogenizing with 4 strokes with a type B pestle in one half the original volume of homogenization medium and recentrifuging for 10 min. at 1,000× g. The final 1,000× g pellet consists mostly of DNA and is discarded. The 1,000× g supernatants are combined and centrifuged at 20,000× g for 30 min. The 20,000× g pellet is washed twice in 25 mM Tris (pH 7.4), with centrifugation for 25 min. at 20,000 2 g. Final membrane pellets are resuspended in 25 mM Tris buffer to concentrations of 4-10 mg membrane protein/ml. Then the 100× 4pase protease inhibitor cocktails are added to 1% of final volume and aliquots are frozen on dry ice. Membranes are stored at -90° C. until needed. Membrane protein is assayed with the Bradford dye binding assay (Bio-Rad).
Standard Binding Assays--Binding assays are done in a binding buffer containing 50 mM HEPES (pH 7.4), 0.5% BSA and 5 mM MgCl2. The standard assay for [^125 I]SRIF analog binding to GH4 CL membranes, done in 96 well microtiter plates (Dynatech Immulon II Removawell plates), is carried out as follows: 1. Radioligand is diluted in binding buffer+PMSF/Baci to the desired cpm per vol. of 50 μl and then 50 μl aliquots are added to the wells. For non-specific binding samples, 5 μl of 40 μM cold S14 is also added per well. […] Binding is initiated by adding 150 μl per well of membrane diluted to the desired concentration (10-30 ug membrane protein/well) in binding buffer+PMSF/Baci. Plates are then covered with Linbro mylar plate sealers (Flow Labs) and placed on a Dynatech Microshaker II and binding is allowed to proceed at room temperature for 1-2 hours. Binding is stopped by centrifuging the plate for 15 minutes at 2,000×g. The supernatants are dumped off and membrane pellets washed once by addition of 200 μl of ice cold binding buffer, brief shaking and recentrifugation. Finally the individual wells are placed in 12×75 mm tubes and counted in an LKB Gammamaster counter (78% efficiency). […]

The test system of data set [2] is receptor:ligand complex (GH4 C1 membranes, [^125 I]Tyr11-S14). Nature of the data set: Detergent solubilization of specifically bound [^125 I]Tyr11-S14 from GH4 C1 membranes and recovery of intact complex (FIGS. 2, 3). The settings on record: [^125 I]Tyr11-S14, FIG. 2. The protocol:
(§1) To solubilize membranes, washed pellets after the binding step are resuspended free of visible particles by pipetting and vortexing in solubilization buffer+1/100 (vol/vol) of 100× 4Pase protease inhibitors+detergent at the desired concentration. After 1 hour on ice, the samples are centrifuged at 100,000×g for 30 minutes. The supernatants are removed and held on ice and the pellets are discarded.
(§2) Sephadex G-50 columns (8×130 mm) are equilibrated with solubilization buffer containing detergent at the concentration used to solubilize membranes and 1 mg/ml bovine serum albumin. 0.2-0.5 ml samples of solubilized membranes are applied to the columns and eluted at a flow rate of about 0.7 ml/minute. 0.18 ml samples are collected. Radioactivity is determined in a gamma counter as described under "Receptor Binding Methods". Void volumes of the columns are determined by the elution volume of blue dextran. Radioactivity eluting in the void volume (>50,000 MW) was considered bound to protein. […] The mixture is held on ice for 15 minutes. Then 3 ml of 0.1M sodium phosphate (pH 7.4) is added to a final part of 4 ml per sample and the samples are rapidly (1-3 seconds) filtered over Whatman GF/B glass fiber filters and washed with 4 ml of the phosphate buffer. […] Whatman GF/B glass fiber filters are soaked in 0.3% polyethyleneimine (PEI, Sigma) for 3 hours. 25-100 ul samples of solubilized membranes are placed in 12×75 mm polypropylene tubes. Then 4 ml of solubilization buffer (without detergent) is added per sample and the samples are immediately filtered through the GFB/PEI filters (1-3 seconds) and washed with 4 ml of solubilization buffer. […] 0.5 gm of Dextran T70 (Pharmacia) is dissolved in 1 liter of water and then 5 gm of activated charcoal (Norit A, alkaline; Fisher Scientific) is added. The suspension is stirred for 10 minutes at room temperature and then stored at 4° C. until use. To measure R:L complex, 4 parts by volume of charcoal/dextran suspension are added to 1 part by volume of solubilized membrane. The samples are mixed and held on ice for 2 minutes and then centrifuged for 2 minutes at 11,000×g in a Beckman microfuge. Free radioligand is adsorbed to charcoal/dextran and is discarded with the pellet.

The target of data set [3] is receptor:ligand complex (GH4 C1 membranes, [^125 I]BioS28) (Rattus norvegicus, UniProt P30680). Nature of the data set: Detergent solubilization of receptor:[^125 I]BioS28 complex, charcoal/dextran assay (Table 2A). The settings on record: for solubilization and stabilization of receptor:ligand complex: [^125 I]BioS28, Table 2A; for Solubilization of specifically bound CPM (%): based on 14,013 cpm specifically bound [^125 I]BioS28 per sample; for Solubilized CPM in intact R:L complex (%): charcoal/dextran method. The protocol:
as §1, §2
Membrane solubilization is conducted as already described; however, determination of the presence of the intact receptor:ligand complex in the 100,000×g supernatant is accomplished by charcoal/dextran assay ("Methods: Assay of Solubilized, 4.").

The subject of data set [4] is streptavidin. Put plainly: Effect of detergent on binding of solubilized R:L complex to streptavidin (Table 2B). The settings on record: for % of original R:L complex bound to SA: % R:L bound to SA × % solubilization of original R:L complex; for % of intact R:L nonbound to SA in 5 hours: streptavidin-agarose, charcoal/dextran assay. The protocol:
The final determination is whether the detergent interferes with binding of the receptor:[^125 I]BioS-28. […] R:L complex in the supernatants ("non-bound to SA") after this time is measured by the charcoal/dextran assay. The % of non-bound, intact R:L complex is calculated from the ratio (R:L non-bound to SA/original R:L in the 100,000×g supernatant). The % of intact R:L complex bound to SA is calculated by subtracting % non-bound R:L from 100%. Finally, % of original R:L bound to SA=% R:L bound to SA×% solubilization of original membrane-bound R:L complex.

Entries after “also recorded” stand apart in the source; their conditions may differ. Where no end group is shown, it is not given here. The star is where a group is joined. Biotin = O=C1N[C@H]2[C@H](CS[C@H]2CCCCC(=O)*)N1; Ahx = NCCCCCC(=O)O

T1 sequence (P30680 whole entry): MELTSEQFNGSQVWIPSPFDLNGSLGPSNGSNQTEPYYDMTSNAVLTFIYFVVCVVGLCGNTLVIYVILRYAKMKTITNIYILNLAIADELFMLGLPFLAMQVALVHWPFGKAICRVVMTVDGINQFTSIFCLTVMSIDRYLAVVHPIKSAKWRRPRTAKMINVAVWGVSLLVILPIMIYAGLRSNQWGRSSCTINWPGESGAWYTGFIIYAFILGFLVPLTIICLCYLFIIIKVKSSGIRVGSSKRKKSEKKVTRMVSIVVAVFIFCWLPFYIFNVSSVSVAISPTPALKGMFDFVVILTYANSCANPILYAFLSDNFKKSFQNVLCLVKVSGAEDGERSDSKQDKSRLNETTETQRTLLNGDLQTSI
receptor:ligand complex (GH4 C1 membranes, [^125 I]BioS28), sequence (P30680 whole entry, one chain of several): as the sequence (P30680 whole entry) above

Molecule “Biotinyl-[NH--(CH2)5 --CO]2 --NH-(Tyr11)SRIF14 ({Biotin-Ahx-Ahx}-AGCKNFFWKTYTSC; ends and bridges not checked; UniProt P61278 103-116, looked up, variant F11Y) [Bio-12C-S14]” had an IC50 in data set [1] of 2 nM.

With `C[C@@H]1CC[C@@]2(OC1)O[C@H]1[C@@H](O)[C@H]3[C@@H]4CC[C@H]5C[C@@H](O[C@@H]6O[C@H](CO)[C@H](O[C@@H]7O[C@H](CO)[C@@H](O)[C@H](O[C@@H]8OC[C@@H](O)[C@H](O)[C@H]8O)[C@H]7O[C@@H]7O[C@H](CO)[C@H](O)[C@H](O[C@@H]8O[C@H](CO)[C@@H](O)[C@H](O)[C@H]8O)[C@H]7O)[C@H](O)[C@H]6O)[C@H](O)C[C@]5(C)[C@H]4CC[C@]3(C)[C@H]1[C@@H]2C` [Digitonin], the “solubilization of receptor:ligand complex / bound radioligand” value in data set [2] is listed as “less satisfactory but adequate levels of solubilization”. In addition, in data set [3], the “% Solubilization of original R:L in membranes (A × B)” value (“% Solubilization of original R:L” below) is 28%; the “solubilization and stabilization of receptor:ligand complex” value (“solubilization and stabilization” below) is “satisfactory results”; the “Solubilization of specifically bound CPM (%)” value was found to be 55%; the “Solubilized CPM in intact R:L complex (%)” value (from here on “Solubilized CPM … (%)”) was 50%. In data set [4], the “% of intact R:L bound to SA (100% - A)” value was 87%, the “% of original R:L complex bound to SA” value was 24% and the “% of intact R:L nonbound to SA in 5 hours” value (“% of intact R:L nonbound” for short) worked out at 13%.

The molecule “Biotinyl-[NH--(CH2)5 --CO]--NH-(Tyr11)SRIF14 ({Biotin-Ahx}-AGCKNFFWKTYTSC; ends and bridges not checked; UniProt P61278 103-116, looked up, variant F11Y) [Bio-6C-S14]” came in with an IC50 in data set [1] of 2 nM.

As for `C[C@H](CCC(=O)NCCC[N+](C)(C)CCCS(=O)(=O)[O-])[C@H]1CC[C@H]2[C@@H]3[C@H](O)C[C@@H]4C[C@H](O)CC[C@]4(C)[C@H]3C[C@H](O)[C@]12C` [CHAPS], in data set [2], the “solubilization of receptor:ligand complex / bound radioligand” value is reported as “total solubilization of radioligand is relatively low; also recorded: did not solubilize well at all at any concentration tested”. Also, in data set [3], the “% Solubilization of original R:L” value is given as 12%, the “Solubilization of specifically bound CPM (%)” value is reported as 38% and the “Solubilized CPM … (%)” value stood at 32%. In data set [4], the “% of intact R:L bound to SA (100% - A)” value is reported as 56%, the “% of original R:L complex bound to SA” value is listed as 7% and the “% of intact R:L nonbound” value amounted to 44%.

For `C[C@H](CCC(=O)O)[C@H]1CC[C@H]2[C@@H]3CC[C@@H]4C[C@H](O)CC[C@]4(C)[C@H]3C[C@H](O)[C@]12C` [Deoxycholate], the “solubilization of receptor:ligand complex / bound radioligand” value in data set [2] is listed as “superior solubilization”. Moreover, in data set [3], the “% Solubilization of original R:L” value was 31%; the “solubilization and stabilization” value is “satisfactory results”; the “Solubilization of specifically bound CPM (%)” value is 93%; the “Solubilized CPM … (%)” value amounted to 33%. In data set [4], the “% of intact R:L bound to SA (100% - A)” value is listed as 89%, the “% of original R:L complex bound to SA” value is recorded as 29% and the “% of intact R:L nonbound” value turned out to be 11%.

With Biotinyl-NH--SRIF14 [Bio-S14], the “potency relative to S14 in competitive binding assay” value in data set [1] (% the potency of S14, 40 ug membrane protein, 85,000 cpm (FIG. 4A)) is listed as “about 1.5%”.

For Lysolecithin, the “solubilization of receptor:ligand complex / bound radioligand” value in data set [2] is recorded as “less satisfactory but adequate levels of solubilization”. In addition, in data set [3], the “% Solubilization of original R:L” value was determined as 33%; the “solubilization and stabilization” value is on record as “satisfactory results”; the “Solubilization of specifically bound CPM (%)” value was found to be 73%; the “Solubilized CPM … (%)” value is 46%. In data set [4], the “% of intact R:L bound to SA (100% - A)” value was 36%, the “% of original R:L complex bound to SA” value is listed as 16% and the “% of intact R:L nonbound” value turned out to be 65%.
